Assay results published in patent publication US10479752B2, “Deuterated tetramethyl dioic acids, compositions comprising them and uses thereof” (SYNDROMEX LTD., priority 2011, dated 2019).
Marks after values point to notes of the source that are not given here.

Experiment: Chemical and isotopic stability as solutions in DMSO/phosphate buffered saline over 48 hours
Settings: for chemical purity (HPLC area percent) with respect to related substances: all samples through the study; for analyte recovered, yield: summary over the study; for disenrichment of the product (isotopic stability): throughout the time period of the study
[1] = DMSO/PBS solution, 37° C., 24 h
[2] = DMSO/PBS solution, 37° C., 48 h
[3] = DMSO/PBS solution, 37° C., 96 h
[4] = Original Sample (before the stability study)

Row | SMILES | GC/MS IE (isotopic enrichment) (DMSO/PBS solution, 37° C., 0 h) [%] | HPLC Area Percentage (DMSO/PBS solution, 37° C., 0 h) [%] | HPLC Assay (DMSO/PBS solution, 37° C., 0 h) [%] | GC/MS IE (isotopic enrichment) (DMSO/PBS solution, 37° C., 2 h) [%] | HPLC Area Percentage (DMSO/PBS solution, 37° C., 2 h) [%] | HPLC Assay (DMSO/PBS solution, 37° C., 2 h) [%] | GC/MS IE (isotopic enrichment) (DMSO/PBS solution, 37° C., 4 h) [%] | HPLC Area Percentage (DMSO/PBS solution, 37° C., 4 h) [%] | HPLC Assay (DMSO/PBS solution, 37° C., 4 h) [%] | GC/MS IE (isotopic enrichment) [1] [%] | HPLC Area Percentage [1] [%] | HPLC Assay [1] [%] | GC/MS IE (isotopic enrichment) [2] [%] | HPLC Area Percentage [2] [%] | GC/MS IE (isotopic enrichment) [3] [%] | HPLC Area Percentage [3] [%] | analyte recovered, yield (DMSO/PBS solution, 37° C.) | HPLC Area Percentage [4] [%] | HPLC Assay [2] | disenrichment of the product (isotopic stability) (DMSO/PBS solution, 37° C.) | also measured
1 | [2H]C([2H])(C(=O)O)C(C)(C)CCCCCCCCCCC(C)(C)C([2H])([2H])C(=O)O [Compound 2, 3,3,14,14-Tetramethyl-1,16-[2-D2,15-D2]hexadecanediol acid] | 97.9 | 94.9 | 67.4 | 98.0 | 95.5 | 65.1 | 98.0 | 95.4 | 62.4 | 98.0 | 95.2 | 86.0 | 98.0 | 96.0 | 98.0 | 96.1 | approximately 90% | 97.0 |  |  | HPLC Assay [3]: 76.8%; chemical purity (HPLC area percent) with respect to related substances (DMSO/PBS solution, 37° C.): around 96%
2 | [2H]C([2H])([2H])C(CCCCCCCCCCC(CC(=O)O)(C([2H])([2H])[2H])C([2H])([2H])[2H])(CC(=O)O)C([2H])([2H])[2H] [Compound 3, 3,3,14,14-[D12]Tetramethyl-1,16-hexadecanedoic acid] | 99.9 | 98.0 | 33.3 | 99.9 | 98.8 | 38.4 | 99.9 | 98.4 | 32.4 | 99.9 | 98.6 | 46.0 | 99.9 | 98.5 |  |  | about 95% | 100.0 | 50.2% | No disenrichment | 
3 | [2H]C([2H])([2H])C(CCCCCCCCCCCCC(C([2H])([2H])[2H])(C([2H])([2H])[2H])C([2H])([2H])C(=O)O)(C([2H])([2H])[2H])C([2H])([2H])C(=O)O [Compound 4, 3,3,16,16-[D16]Tetramethyl-1,18-octadecanedioic acid] | 98.6 | 97.2 | 70.9 | 98.4 | 97.8 | 65.9 | 98.4 | 97.5 | 53.8 | 98.4 | 96.5 | 93.8 | 98.3 | 97.5 |  |  |  | 99.2 | 77.6% |  | stability results overall, in words (DMSO/PBS solution, 37° C., 48 h study): essentially the same as those for Compound 1; GC/MS IE (isotopic enrichment) [4]: 98.3%
4 | [2H]C([2H])(C(=O)O)C(C)(C)CCCCCCCCCCCCC(C)(C)C([2H])([2H])C(=O)O [Compound 5, 3,3,16,16-tetramethyl-1,18-[2-D2,17-D2]octadecanedioic acid] | 96.3 | 98.4 | 57.0 | 95.9 | 98.0 | 44.6 | 96.0 | 98.5 | 46.3 | 96.0 | 98.4 | 95.3 | 95.5 | 98.0 | 96.1 | 98.7 | about 95% | 100.0 | 213.8%* | No disenrichment | HPLC Assay [3]: 79.8%
5 | [2H]C([2H])([2H])C(CCCCCCCCCCCCC(CC(=O)O)(C([2H])([2H])[2H])C([2H])([2H])[2H])(CC(=O)O)C([2H])([2H])[2H] [Compound 6, 3,3,16,16-[D12]Tetramethyl-1,18-octadecanedioic acid] | 99.2 | 98.4 | 39.0 | 99.0 | 98.6 | 33.1 | 99.1 | 97.9 | 35.6 | 99.0 | 98.5 | 39.8 | 99.1 | 98.7 |  |  | about 95% | 100.0 | 59.6% | No disenrichment | 
6 | [2H]C([2H])([2H])C(CCCCCCCCCCCCCCC(C(=O)O)(C([2H])([2H])[2H])C([2H])([2H])[2H])(C(=O)O)C([2H])([2H])[2H] [Compound 8, 2,2,17,17-Tetramethyl(D12)-octadecanedioic acid] | 99.9 | 95.1 | 60.0 | 99.9 | 94.3 | 68.7 | 99.9 | 94.1 | 56.9 | 99.9 | 96.0 | 66.8 | 99.9 | 97.2 |  |  | about 85% | 100.0 | 47.7% | No disenrichment | chemical purity (HPLC area percent) with respect to related substances (DMSO/PBS solution, 37° C.): around 95%; GC/MS IE (isotopic enrichment) [4]: 99.9%
